Results on one compound are retold here after US20230181535A1, “UBIQUITIN-LIGASE INHIBITORS FOR THE TREATMENT OF CANCER” (FUNDACIÓN PROFESOR NOVOA SANTOS, priority 2020, published 2023).

SMILES strings stand for the structures.

Series [1] relates to HT-29 colon tumour cell line. Description: MTT cell viability assay, HT-29. The format is cell-based, human. As to conditions: increasing range of concentrations. The procedure: For cytotoxicity assays, 1×10^4 cells were seeded per well into a 96-well plate. After 24 h cells were treated with the indicated inhibitors for 72 h and a MTT colorimetric cell viability assay was performed following manufacturer's instructions (Sigma Aldrich, St Louis, Mo.). Absorbance was measured at 570 and 630 nm using a Multiskan Plus Reader (Nanoquant Infinite M200 Tecan Trading AG, Switzerland). Dose-response curves were designed with Graph Pad Prism Software and the half-maximal inhibitory concentration (IC50) values were calculated. Represented data are the mean±SEM of at least three independent experiments with six replicates per condition.
In general terms: Tetrazolium dyes change colour on reduction, which living cells bring about.

The test system of series [2] is HT-29 cells. Put plainly: Phase-contrast cell phenotype, HT-29. The format is cell-based, human. The procedure: (§1) MDCK, HEK293T, HepG2, MCF7 and ACHN cells were cultured in Dulbecco's Modified Eagles Medium (DMEM). MDCK stably expressing Hakai cells (Hakai-MDCK) were previously reported and were growth in DMEM with G418 (800 μg/ml). […] LoVo and PC-3 cells were cultured in F-12K Medium (Kaighn's Modification of Ham's F-12 Medium) and HT-29 and HCT116 cells in McCoy's 5a Medium Modified. 5637 cells were cultured in RPMI medium. All culture media were supplemented with 1% penicillin/streptomycin and 10% of heat-inactivated fetal bovine serum (FBS) at 37° C. in a humidified incubator with 5% CO2. Cells were monthly tested for mycoplasma contamination and used only for 1-3 months after defrosted. LoVo and HT29 cells were authenticated with the StemElite ID system (Promega). For phase-contrast images, culture cells were photographed with a Nikon Eclipse-TI microscope.

The subject of series [3] is epithelial MDCK cells. Put plainly: Phase-contrast cell phenotype, MDCK. Format: cell-based. The procedure: as §1
Series [4] relates to HT-29 cells. Description: Western blotting of EMT markers, HT-29. Conditions: HT-29; 48 h. The format is cell-based, human. As for the experimental part: For western blot analysis, cells were treated with the indicated inhibitors for 48 h and the whole cell extracts were obtained as described previously. Twenty micrograms of lysates were resolved on a 10% polyacrilamide SDS-PAGE followed by western blot analysis performed as previously described. For immunofluorescence assays cells were grown for 24 h on glass coverslips and treated with the indicated inhibitors for 48 h. Cells were fixed with 4% PFA for 15 min, permeabilized with 0.5% […] and incubated with E-cadherin antibody for 2 h. Coverslips were incubated with fluorescein-tagged secondary antibody (Dakopatts, Sweden) for […]. Finally coverslips were mounted with ProLong Gold antifade reagent (LifeTech, UK) and images were taken in epifluorescence microscope (Olympus) using 40× objective. Immunofluorescence of E-cadherin and DNA content analysis for FIGS. 22-23 were performed culturing of HT-29 human colorectal adenocarcinoma cell line in 384-well plates with densities of 3,000 cells per well in a total volume of 25 μl. After the completion of the staining, four images (2×2 array) of each well were taken with Vala Sciences' SIM™ with a 20× objective. Each image was acquired as a SIM Synthetic Focus with a z-stack range of 6 μm with 1 μm steps. The SIM Synthetic Focus feature will compile a “best focus” images from multiple images. One set of SIM Synthetic Focus images were taken in the DAPI channel for Hoechst 33342 staining, and another set of images were taken in the FITC channel for anti-E-cadherin-AlexaFluor488 labeling and analysed by Structured Illumination Microscopy (SIM™) platform to image the cells and Vala's CyteSeer® Cell-Cell Junction Algorithm to quantify the degree of expression and intracellular location of E-cadherin Vala's CyteSeer® Software can also measure relative DNA content by analyzing Total Integrated Intensity (TII) of the Nuclear Image (Ni) on the Nuclear Mask (Nm). This analysis was performed by Vala Science. Twenty compounds from were assayed in a “blinded” manner, at 2 test concentrations in 6 replicate wells for first assay and 3 replicate for second assay.

The test system of series [5] is LoVo cells. Put plainly: Western blotting of EMT markers, LoVo. Format: cell-based. Conditions: 48 h. The procedure:
(§2) For western blot analysis, cells were treated with the indicated inhibitors for 48 h and the whole cell extracts were obtained as described previously. Twenty micrograms of lysates were resolved on a 10% polyacrilamide SDS-PAGE followed by western blot analysis performed as previously described. For immunofluorescence assays cells were grown for 24 h on glass coverslips and treated with the indicated inhibitors for 48 h. Cells were fixed with 4% PFA for 15 min, permeabilized with 0.5% […] and incubated with E-cadherin antibody for 2 h. Coverslips were incubated with fluorescein-tagged secondary antibody (Dakopatts, Sweden) for […]. Finally coverslips were mounted with ProLong Gold antifade reagent (LifeTech, UK) and images were taken in epifluorescence microscope (Olympus) using 40× objective. […] One set of SIM Synthetic Focus images were taken in the DAPI channel for Hoechst 33342 staining, and another set of images were taken in the FITC channel for anti-E-cadherin-AlexaFluor488 labeling and analysed by Structured Illumination Microscopy (SIM™) platform to image the cells and Vala's CyteSeer® Cell-Cell Junction Algorithm to quantify the degree of expression and intracellular location of E-cadherin Vala's CyteSeer® Software can also measure relative DNA content by analyzing Total Integrated Intensity (TII) of the Nuclear Image (Ni) on the Nuclear Mask (Nm). […]
A general note: In western blotting, separated proteins are transferred to a membrane and probed.

Series [6] has as its system mesenchymal Hakai-MDCK cells. Put plainly: E-cadherin protein levels in Hakai-MDCK cells. Format: cell-based. As to conditions: Hakai-MDCK cells (no basal E-cadherin). The procedure:
as §2

The test system of series [7] is breast cancer MCF7 cell. Put plainly: BrdU proliferation assay, MCF7. The format is cell-based, human. As to conditions: 48 h. The procedure: (§3) For BrdU assays, 1×10^4 of indicated cells were plated per well into a 96-well plate. After 24 h, cells were treated with the indicated inhibitors for 48 h. Three independent experiments were plated with six replicates per each condition. Cells were treated with […] BrdU for 2 h. BrdU incorporation into newly synthesized DNA was measured using a cell proliferation colorimetric immunoassay kit according to the manufacturer's instructions (Roche, Switzerland). Results are expressed as mean±S.D. Results are represented as percentage of positive cells (mean±S.D) of three independent experiments.

The subject of series [8] is bladder cancer 5637 cells. Put plainly: BrdU proliferation assay, 5637. Format: cell-based, human. Conditions: 48 h. As for the experimental part: as §3
In series [9] the test system is Hakai-MDCK cells. Put plainly: Soft agar-colony formation assay, Hakai-MDCK. The format is cell-based. Conditions: 21 days. The procedure: Soft agar-colony formation assay was performed on 12-well plates in triplicates at a density of 5×10^3 MDCK and MDCK-Hakai cells/well, or 12×10^3 HT29 cells/well. Cells were seeded in medium with 0.5% low-melting agarose over a layer with 0.75% low-melting agarose (Lonza Rockland, Me., USA). Cells were treated with the indicated inhibitors and DMSO was used as vehicle. Treatment was refreshed every 3 days and, after 21 days for MDCK and MDCK-Hakai cells or 28 days for HT29 cells, number of colonies were quantified. Quantification of five randomly-selected fields of each condition was photographed with a Nikon Eclipse-TI microscope (objective 4×). Experiments were conducted with three triplicates and were repeated three times. Data are represented as mean±SD.

Series [10] in a line: Hepatocyte stability, human. The format is in vitro ADME. Conditions: cryopreserved human hepatocytes in suspension, read-out: estimated half-life. The procedure: Test compound (final substrate concentration 3 μM; final DMSO concentration 0.25%) were pre-incubated at 37° C., prior to the addition of a suspension of cryopreserved hepatocytes (final cell density 0.5×10^6 viable cells/mL in Williams E media supplemented with 2 mM L glutamine and 25 mM HEPES) to initiate the reaction. The reactions were stopped with acetonitrile containing internal standard at the appropriate time points ([…]). The termination plates were centrifuged at 2500 rpm at 4° C. for 30 minute to precipitate the protein. Following the hepatocyte stability assays, the samples were utilized for metabolite profiling. Hepatocyte stability in mouse and human was performed by using the incubation of tested compound (3 μM) with cryopreserved hepatocytes in suspension. Samples were removed at 6 time points over the course of a 60 min experiment and remaining test compound at each time point was analysed by using LC-MS/MS. Then, data was analysed and an intrinsic clearance (CLint) with standard error and half-life (t½) reported.

The subject of series [11] is tumour culture cells. Put plainly: In vitro antitumor effect (summary of cell assays). The format is cell-based.

In general, half-life refers to the time needed for the level to fall by half in the phase considered.

Regarding `O=C(O)c1ccc(-n2nnnc2SCC(=O)c2ccc([N+](=O)[O-])cc2)cc1` [Hakin-1, 4-(5-[2-(4-nitrophenyl)-2-oxoethyl]thiol-1H-tetrazol-1-yl)benzoic acid], the “cytotoxicity (cell viability, MTT)” value in [1] is “important inhibitory response”. Moreover, the “cell phenotype by phase contrast” value in series [2] was “modestly induce an epithelial phenotype”; in series [3] it was “no effect was observed”. For the same compound, in series [4], the “Cortactin expression levels (western blotting)” value was “increase expression levels”. Also, the “E-cadherin levels (western blotting)” value in [4] is “increase E-cadherin levels”. Further, in [4], the “Vimentin mesenchymal marker (western blotting)” value is given as “reduced”. In addition, the “EMT markers (western blotting)” value in series [5] was “confirmed these results”. The E-cadherin protein levels entry in series [6] is recorded as “no recovery was detected”. For the same compound, the “cell proliferation (BrdU)” value in series [7] and in series [8] was “inhibited cell proliferation” throughout. Also, the “colony formation in soft agar” value in series [9] is “robust inhibition of colony formation”. In addition, the half-life at 3 μM in [10] is 2.33 h. Moreover, in series [11], the “concentration at which the in vitro antitumor effect was observed” value is 100 to 200 µM.
